ChEMBL document CHEMBL1201862, “PubChem BioAssay data set” (2004)
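Five compound concentrations were applied to cells in 96-well plates for 48 hours; endpoints were derived by simple linear interpolation of the resulting dose-response curve. GI50 marks 50% less growth.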 Activity calls are given as the source filed them. Cut-off read from the data, not from the text of the source: active = GI50 up to about 1.1 µM and inactive = higher.

Key:
Experiment in all cases: NCI-60 cell line screen, 48 h
COLO 205 = test system: COLO 205
HCT-116 = test system: HCT-116
MDA-MB-435 = test system: MDA-MB-435
EKVX = test system: EKVX
UACC-257 = test system: UACC-257
786-0 = test system: 786-0
BT-549 = test system: BT-549
A549 = test system: A549
SK-MEL-28 = test system: SK-MEL-28
MDA-N = test system: MDA-N
HCT-15 = test system: HCT-15
RXF 393 = test system: RXF 393
CAKI-1 = test system: CAKI-1
OVCAR-5 = test system: OVCAR-5
SK-MEL-5 = test system: SK-MEL-5
OVCAR-3 = test system: OVCAR-3
T47D = test system: T47D
PC-3 = test system: PC-3
TK-10 = test system: TK-10

Row | Structure (SMILES) | GI50 (COLO 205) | GI50 (HCT-116) | GI50 (MDA-MB-435) | GI50 (EKVX) | GI50 (UACC-257) | GI50 (786-0) | GI50 (BT-549) | GI50 (A549) | GI50 (SK-MEL-28) | GI50 (MDA-N) | GI50 (HCT-15) | GI50 (RXF 393) | GI50 (CAKI-1) | GI50 (OVCAR-5) | GI50 (SK-MEL-5) | GI50 (OVCAR-3) | GI50 (T47D) | GI50 (PC-3) | GI50 (TK-10)
1 | Nc1ncc(Br)c(NCC2(CO)CCC2)n1 | > 100 µM (inactive) | > 100 µM (inactive) | > 100 µM (inactive) | 58.5 µM (inactive) | > 100 µM (inactive) | > 100 µM (inactive) | > 100 µM (inactive) | > 100 µM (inactive) | > 100 µM (inactive) | > 100 µM (inactive) | > 100 µM | > 100 µM (inactive) | 49.8 µM (inactive) | 20.7 µM (inactive) | 54.5 µM (inactive) | > 100 µM (inactive) | 1.69 µM (inactive) | > 100 µM (inactive) | > 100 µM (inactive)
2 | CC(N1CCOCC1)C(O)(c1ccccc1)c1ccccn1 (centres undefined) | > 100 µM (inactive) | > 100 µM (inactive) | > 100 µM (inactive) | > 100 µM (inactive) | > 100 µM (inactive) | > 100 µM (inactive) | > 100 µM (inactive) | > 100 µM (inactive) | > 100 µM (inactive) | > 100 µM (inactive) | > 100 µM | > 100 µM (inactive) | > 100 µM (inactive) | > 100 µM (inactive) | > 100 µM (inactive) | > 100 µM (inactive) | > 100 µM (inactive) | > 100 µM (inactive) | > 100 µM (inactive)
3 | O=C(OCc1ccccc1)N1c2cc([N+](=O)[O-])ccc2C(=O)N2CCC[C@H]2C1O (some centres undefined) | > 100 µM (inactive) | > 100 µM (inactive) | > 100 µM (inactive) | > 100 µM (inactive) | > 100 µM (inactive) | > 100 µM (inactive) | > 100 µM (inactive) | > 100 µM (inactive) | > 100 µM (inactive) | > 100 µM (inactive) | > 100 µM | > 100 µM (inactive) | > 100 µM (inactive) | > 100 µM (inactive) | > 100 µM (inactive) | > 100 µM (inactive) | > 100 µM (inactive) | > 100 µM (inactive) | > 100 µM (inactive)
4 | CCc1nn(S(=O)(=O)c2ccc(C)cc2)c2c1CS(=O)(=O)CC2 | > 100 µM (inactive) | > 100 µM (inactive) | > 100 µM (inactive) | 89.7 µM (inactive) | > 100 µM (inactive) | > 100 µM (inactive) | > 100 µM (inactive) | > 100 µM (inactive) | > 100 µM (inactive) | > 100 µM (inactive) | > 100 µM | > 100 µM (inactive) | > 100 µM (inactive) | > 100 µM (inactive) | > 100 µM (inactive) | > 100 µM (inactive) | > 100 µM (inactive) | > 100 µM (inactive) | > 100 µM (inactive)
5 | S=C1SCN(Cc2ccco2)CN1c1ccc(Br)cc1 | 15.8 µM (inactive) | 12.2 µM (inactive) | 14.6 µM (inactive) | 18.7 µM (inactive) | 15.6 µM (inactive) | 17.1 µM (inactive) | 16.7 µM (inactive) | 18.5 µM (inactive) | 17.8 µM (inactive) | 16.9 µM (inactive) | 8.69 µM | 30.6 µM (inactive) | 14.8 µM (inactive) | 16.8 µM (inactive) | 12.1 µM (inactive) | 7.76 µM (inactive) | 20.1 µM (inactive) | 16.7 µM (inactive) | 22.8 µM (inactive)
6 | CC(CN(C)C)C(C#N)(c1ccccc1)c1ccccc1 (centres undefined) | 82.6 µM (inactive) | > 100 µM (inactive) | > 100 µM (inactive) | > 100 µM (inactive) | > 100 µM (inactive) | > 100 µM (inactive) | > 100 µM (inactive) | > 100 µM (inactive) | 89.1 µM (inactive) | > 100 µM (inactive) | > 100 µM | > 100 µM (inactive) | > 100 µM (inactive) | > 100 µM (inactive) | > 100 µM (inactive) | > 100 µM (inactive) | > 100 µM (inactive) | 47.6 µM (inactive) | > 100 µM (inactive)
7 | NC(=S)Nc1ccc2c(c1)oc1ccccc12 | > 100 µM (inactive) | > 100 µM (inactive) | > 100 µM (inactive) | 10.4 µM (inactive) | > 100 µM (inactive) | > 100 µM (inactive) | > 100 µM (inactive) | > 100 µM (inactive) | > 100 µM (inactive) | > 100 µM (inactive) | 55.1 µM | > 100 µM (inactive) | > 100 µM (inactive) | > 100 µM (inactive) | 18.9 µM (inactive) | > 100 µM (inactive) | > 31.5 µM (inactive) | > 100 µM (inactive) | > 100 µM (inactive)
8 | CCOC(=O)/C=C(/C=C\COC1CCCCO1)c1ccccc1 (centres undefined) | > 100 µM (inactive) | 16 µM (inactive) | 25.2 µM (inactive) | 43.3 µM (inactive) | 56.1 µM (inactive) | 24.7 µM (inactive) | 41.1 µM (inactive) | 38.4 µM (inactive) | 30 µM (inactive) | 31.3 µM (inactive) | 27.4 µM | 16.1 µM (inactive) | 33.7 µM (inactive) | 96.2 µM (inactive) | 35 µM (inactive) | 29.2 µM (inactive) | 20.8 µM (inactive) | 35.6 µM (inactive) | > 100 µM (inactive)
9 | CN1CSC(=S)N(c2c3ccccc3nc3ccc(Br)cc23)C1 | 6.43 µM (inactive) | 4.28 µM (inactive) | 8.67 µM (inactive) | 12.9 µM (inactive) | 12.1 µM (inactive) | 4.7 µM (inactive) | 15.4 µM (inactive) | 6.22 µM (inactive) | 16.9 µM (inactive) | 10.4 µM (inactive) | 6.4 µM | 11.9 µM (inactive) | 5.41 µM (inactive) | 13.7 µM (inactive) | 12.4 µM (inactive) | 16.7 µM (inactive) | 11.6 µM (inactive) | 8.77 µM (inactive) | 9.51 µM (inactive)
10 | COc1ccc(CC2c3cc(OC)c(OC)c(OC)c3CC[N+]2(C)C)cc1Oc1ccc(CC2c3cc4c(c(OC)c3CCN2C)OCO4)cc1 (centres undefined) | > 100 µM (inactive) | > 100 µM (inactive) | > 100 µM (inactive) | > 100 µM (inactive) | > 100 µM (inactive) | > 100 µM (inactive) | > 100 µM (inactive) | > 100 µM (inactive) | > 100 µM (inactive) | > 100 µM (inactive) | > 100 µM | > 100 µM (inactive) | > 100 µM (inactive) | > 100 µM (inactive) | 96.6 µM (inactive) | > 100 µM (inactive) | > 100 µM (inactive) | > 100 µM (inactive) | > 100 µM (inactive)
11 | O=C(NC(=S)Nc1ccc2c(c1)Sc1ccccc1O2)c1ccccc1 | 38.8 µM (inactive) | 41 µM (inactive) | 3.55 µM (inactive) | 36.1 µM (inactive) | 33.2 µM (inactive) | 20.3 µM (inactive) | 29.6 µM (inactive) | 45.5 µM (inactive) | 22.2 µM (inactive) | 3.94 µM (inactive) | 14 µM | 20.4 µM (inactive) | 47.8 µM (inactive) | 77.3 µM (inactive) | 20.8 µM (inactive) | 35.7 µM (inactive) | 41.3 µM (inactive) | 11.2 µM (inactive) | 20.8 µM (inactive)
